Data on one compound can be found in US20250082598A1, “Melafenoxate, 2-(1-adamantylamino)ethyl 2-(4-chlorophenoxy)acetate and derivatives thereof for treating circadian rhythm sleep disorders with neurodegenerative diseases such as Alzheimer's disease” (NLS Pharmaceutics AG, priority 2021, published 2025).

In test [1] the test system is Cl— channel (GABA-gated). As to the kind of experiment: Radioligand binding, Cl- channel (GABA-gated). To be noted: antagonist radioligand. The method, then: (§1) Melafenoxate was tested at 10^−5 M, calculated as a % inhibition of control specific binding of a radioactively labeled ligand specific for each target.
(§2) This binding profile panel was broadly defined with roughly an equal number of selective, central and peripheral therapeutically relevant targets, including native animal tissues, radioligands and specific enzymes involved in cell cycle regulation in accordance with Eurofins Standard Operating Procedure.
(§3) For radioligand binding experiments, the half maximal inhibitory concentration (IC50) and the half maximal effective concentration (EC50) values were determined (via computer software) by nonlinear regression analysis of the competition curves using Hill equation curve fitting. The inhibition constants (Ki) were calculated using the Cheng-Prusoff equation (Ki=IC50/(1+(L/KD)), where L is the concentration of radioligand in the assay, and KD is the affinity of the radioligand for the receptor.^49
(§4) The results are expressed as a % control specific binding ([measured specific binding/control specific binding]×100) and as a % inhibition of control specific binding (100−[(measured specific binding/control specific binding)×100]) obtained in the presence of the test compounds. […]

For test [2], the target named is T1, NK2 (h) (Homo sapiens, UniProt P21452).
T1 construct: CEREP (Eurofins, France)
T1 sequence (P21452 1-398): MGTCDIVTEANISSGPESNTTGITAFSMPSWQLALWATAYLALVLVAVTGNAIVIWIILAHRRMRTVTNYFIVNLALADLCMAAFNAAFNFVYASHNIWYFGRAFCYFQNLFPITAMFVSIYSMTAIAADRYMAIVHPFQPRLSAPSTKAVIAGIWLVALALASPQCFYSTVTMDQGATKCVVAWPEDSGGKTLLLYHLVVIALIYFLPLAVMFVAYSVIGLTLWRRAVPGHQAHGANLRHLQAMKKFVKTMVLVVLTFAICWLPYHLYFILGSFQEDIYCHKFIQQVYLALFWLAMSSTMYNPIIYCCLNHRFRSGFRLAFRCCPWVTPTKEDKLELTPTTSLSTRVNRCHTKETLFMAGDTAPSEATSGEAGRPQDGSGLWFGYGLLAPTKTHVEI
Briefly: Radioligand binding, NK2 (h). Conditions: 10^−5 M; agonist radioligand. The method, then:
as §1, §2, §3, §4

A word on the % Inhibition: it is the drop in the measured response relative to a control, in per cent. Read a high % Inhibition as a strong effect. As usually defined, the inhibition is the percentage by which the read-out fell short of the control. The low end stands for a response near the control, the high end for a response far below the control. For the compound `O=C(COc1ccc(Cl)cc1)OCCNC12CC3CC(CC(C3)C1)C2` [Melafenoxate, 2-(1-adamantylamino)ethyl 2-(4-chlorophenoxy)acetate], the “% Inhibition at 10^−5 M” value in test [1] came to 13.5%. At 10 µM the inhibition in test [2] was 33.5%.
